How the values were obtained:
Cytochrome P450 1A2 = biological target: T1, Cytochrome P450 1A2 (Homo sapiens, UniProt P05177)
T1 sequence (P05177 whole entry): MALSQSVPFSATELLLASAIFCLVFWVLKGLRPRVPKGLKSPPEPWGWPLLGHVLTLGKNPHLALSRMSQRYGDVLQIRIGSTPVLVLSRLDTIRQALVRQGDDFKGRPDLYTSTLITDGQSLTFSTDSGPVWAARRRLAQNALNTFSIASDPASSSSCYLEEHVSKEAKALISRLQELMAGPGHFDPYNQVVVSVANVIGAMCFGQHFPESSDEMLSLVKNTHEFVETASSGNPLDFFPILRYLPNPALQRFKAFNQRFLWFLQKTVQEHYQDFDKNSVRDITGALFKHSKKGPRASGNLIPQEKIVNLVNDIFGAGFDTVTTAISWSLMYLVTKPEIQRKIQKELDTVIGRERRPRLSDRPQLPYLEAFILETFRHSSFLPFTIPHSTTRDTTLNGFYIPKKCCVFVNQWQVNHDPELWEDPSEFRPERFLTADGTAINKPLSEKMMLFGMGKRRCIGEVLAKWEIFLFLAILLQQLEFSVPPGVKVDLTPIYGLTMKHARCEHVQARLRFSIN
Description: Drug metabolism assessed as CYP1A2 (unknown origin)-mediated metabolite formation

[1] = biological target: T2, UDP-glucuronosyltransferase 1A4 (Homo sapiens, UniProt P22310); experiment: Drug metabolism assessed as UGT1A4 (unknown origin)-mediated metabolite formation; format: ADME
T2 sequence (P22310 whole entry): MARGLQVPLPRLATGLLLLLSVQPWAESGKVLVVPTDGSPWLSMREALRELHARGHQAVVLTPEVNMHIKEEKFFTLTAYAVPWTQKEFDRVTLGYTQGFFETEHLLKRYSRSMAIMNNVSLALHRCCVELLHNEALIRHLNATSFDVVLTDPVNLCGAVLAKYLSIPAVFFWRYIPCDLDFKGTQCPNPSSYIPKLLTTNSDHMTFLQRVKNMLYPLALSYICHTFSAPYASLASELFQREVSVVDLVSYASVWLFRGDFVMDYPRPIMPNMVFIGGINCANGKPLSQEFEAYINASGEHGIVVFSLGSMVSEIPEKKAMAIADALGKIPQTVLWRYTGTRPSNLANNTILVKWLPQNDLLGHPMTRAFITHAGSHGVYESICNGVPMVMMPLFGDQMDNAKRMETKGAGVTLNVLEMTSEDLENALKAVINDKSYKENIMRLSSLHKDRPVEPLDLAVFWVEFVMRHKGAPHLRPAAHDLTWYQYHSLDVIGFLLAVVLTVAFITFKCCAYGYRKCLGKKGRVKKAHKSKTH

[2] = biological target: T3, UDP-glucuronosyltransferase 1A1 (Homo sapiens, UniProt P22309); experiment: Drug metabolism assessed as UGT1A1 (unknown origin)-mediated metabolite formation; format: ADME
T3 sequence (P22309 whole entry): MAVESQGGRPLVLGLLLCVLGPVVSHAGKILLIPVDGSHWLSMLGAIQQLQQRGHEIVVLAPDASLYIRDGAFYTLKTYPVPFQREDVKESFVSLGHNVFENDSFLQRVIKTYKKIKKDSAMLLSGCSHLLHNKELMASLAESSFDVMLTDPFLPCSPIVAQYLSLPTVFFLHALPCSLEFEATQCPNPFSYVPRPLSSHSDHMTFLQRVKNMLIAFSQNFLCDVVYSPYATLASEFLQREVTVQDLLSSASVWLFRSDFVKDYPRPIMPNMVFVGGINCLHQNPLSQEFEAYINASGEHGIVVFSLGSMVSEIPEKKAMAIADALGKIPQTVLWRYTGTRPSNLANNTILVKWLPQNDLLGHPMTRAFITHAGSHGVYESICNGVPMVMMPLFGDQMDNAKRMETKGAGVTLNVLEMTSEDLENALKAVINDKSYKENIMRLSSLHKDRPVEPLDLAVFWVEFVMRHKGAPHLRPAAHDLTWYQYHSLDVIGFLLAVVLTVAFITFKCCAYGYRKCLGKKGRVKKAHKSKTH

[3] = biological target: T4, UDP-glucuronosyltransferase 1A3 (Homo sapiens, UniProt P35503); experiment: Drug metabolism assessed as UGT1A3 (unknown origin)-mediated metabolite formation; format: ADME
T4 sequence (P35503 whole entry): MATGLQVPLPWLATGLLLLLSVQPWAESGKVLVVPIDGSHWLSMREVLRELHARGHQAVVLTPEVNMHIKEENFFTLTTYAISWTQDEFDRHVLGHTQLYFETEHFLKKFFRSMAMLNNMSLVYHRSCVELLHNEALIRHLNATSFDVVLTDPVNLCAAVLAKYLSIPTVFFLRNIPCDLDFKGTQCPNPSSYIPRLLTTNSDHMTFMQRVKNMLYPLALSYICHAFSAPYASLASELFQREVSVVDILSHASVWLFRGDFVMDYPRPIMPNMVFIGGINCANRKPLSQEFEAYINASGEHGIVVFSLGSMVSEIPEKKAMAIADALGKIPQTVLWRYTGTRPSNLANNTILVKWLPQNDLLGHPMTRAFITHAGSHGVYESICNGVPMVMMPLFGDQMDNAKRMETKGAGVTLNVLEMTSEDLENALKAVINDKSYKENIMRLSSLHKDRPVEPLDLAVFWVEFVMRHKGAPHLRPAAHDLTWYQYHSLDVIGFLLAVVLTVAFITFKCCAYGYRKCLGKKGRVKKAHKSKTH

[4] = biological target: T5, UDP-glucuronosyltransferase 1A9 (Homo sapiens, UniProt O60656); experiment: Drug metabolism assessed as UGT1A9 (unknown origin)-mediated metabolite formation; format: ADME
T5 sequence (O60656 whole entry): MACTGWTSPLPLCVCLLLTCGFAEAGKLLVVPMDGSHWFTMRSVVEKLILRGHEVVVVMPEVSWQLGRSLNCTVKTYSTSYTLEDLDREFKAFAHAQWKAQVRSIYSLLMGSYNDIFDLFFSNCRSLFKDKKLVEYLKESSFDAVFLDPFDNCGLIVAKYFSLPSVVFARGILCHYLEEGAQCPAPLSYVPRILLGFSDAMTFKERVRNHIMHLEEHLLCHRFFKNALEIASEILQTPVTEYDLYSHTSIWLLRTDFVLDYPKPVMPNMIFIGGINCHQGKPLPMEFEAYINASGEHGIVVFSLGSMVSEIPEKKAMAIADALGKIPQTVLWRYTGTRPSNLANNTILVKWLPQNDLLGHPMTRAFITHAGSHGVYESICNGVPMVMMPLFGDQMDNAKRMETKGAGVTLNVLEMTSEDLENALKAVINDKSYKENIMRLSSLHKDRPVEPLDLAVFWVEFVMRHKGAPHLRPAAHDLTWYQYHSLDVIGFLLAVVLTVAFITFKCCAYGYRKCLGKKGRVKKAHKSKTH

[5] = Kinetic solubility in pH 10 sodium hydroxide buffer at 1 to 250 uM after 2 hrs; format: physicochemical; details: read-out: Kinetic_solubility
[6] = Intrinsic clearance in mouse liver microsomes assessed per mg protein at 1 uM measured up to 45 mins; format: ADME, microsome; details: read-out: CLH

| SMILES | Drug metabolism (Cytochrome P450 1A2) | Drug metabolism [1] | Drug metabolism [2] | Drug metabolism [3] | Drug metabolism [4] | solubility kinetic at 2 h [5] [µM] | microsomal CLint at 1 µM [6] [µL/min/mg] |
| --- | --- | --- | --- | --- | --- | --- | --- |
| CC(C)Cc1ccc(C(C)C(=O)O)cc1 (stereo unspecified) [IBUPROFEN] | Metabolite_Notdetected | Metabolite_Notdetected | Metabolite_Notdetected | Metabolite_Detected | Metabolite_Detected |  |  |
| O=C(O)Cc1ccccc1Nc1c(Cl)cccc1Cl [DICLOFENAC] | Metabolite_Notdetected | Metabolite_Notdetected | Metabolite_Notdetected | Metabolite_Detected | Metabolite_Notdetected |  |  |
| CCOCc1cn(-c2ccc(Cl)cc2)nn1 | Metabolite_Detected | Metabolite_Detected | Metabolite_Notdetected | Metabolite_Notdetected | Metabolite_Notdetected | < 250 | 22.2 |
| COc1ccc2cc([C@H](C)C(=O)O)ccc2c1 [NAPROXEN] |  | Metabolite_Notdetected | Metabolite_Detected | Metabolite_Detected | Metabolite_Detected |  |  |
